Measured values reported in patent US8796308B2, “Modulators of cystic fibrosis transmembrane conductance regulator” (Vertex Pharmaceuticals Incorporated, priority 2009, dated 2014).
pEC50, pIC50: −log10 of the molar value. ≈ marks a conversion by molar mass, not a printed value.

Assays:
[1] = molecular target: CaV 1.2 (Homo sapiens, UniProt Q13936); test: CaV 1.2 inhibition
[2] = molecular target: T1, ΔF508-CFTR in HBE (Homo sapiens, UniProt P13569, DEL508-508); test: Ussing chamber assay, Δ508-HBE; type: cell-based; conditions: HBE from patients homozygous for ΔF508-CFTR
T1 construct: CF-HBE were isolated from patients homozygous for ΔF508-CFTR; endogenous in cells; host or cells: primary bronchial epithelial cells (HBE) from CF patients homozygous for ΔF508
Protocol: Ussing chamber experiments were performed on polarized airway epithelial cells expressing ΔF508-CFTR to further characterize the ΔF508-CFTR modulators identified in the optical assays. Non-CF and CF airway epithelia were isolated from bronchial tissue, cultured as previously described (Galietta, L. J. V., Lantero, S., Gazzolo, A., Sacco, O., Romano, L., Rossi, G. A., & Zegarra-Moran, O. (1998) In Vitro Cell. Dev. Biol. 34, 478-481), and plated onto Costar® Snapwell™ filters that were pre-coated with NIH3T3-conditioned media. After four days the apical media was removed and the cells were grown at an air liquid interface for >14 days prior to use. […] CF-HBE were isolated from patients homozygous for ΔF508-CFTR.
HBE grown on Costar® Snapwell™ cell culture inserts were mounted in an Ussing chamber (Physiologic Instruments, Inc., San Diego, Calif.), and the transepithelial resistance and short-circuit current in the presence of a basolateral to apical Cl^− gradient (ISC) were measured using a voltage-clamp system (Department of Bioengineering, University of Iowa, Iowa). Briefly, HBE were examined under voltage-clamp recording conditions (Vhold=0 mV) at 37° C. […]

[3] = molecular target: T2, ΔF508-CFTR in NIH 3T3 cells (Homo sapiens, UniProt P13569, DEL508-508); test: Membrane potential optical potentiator assay (FLIPR III); type: cell-based; conditions: temperature-corrected ΔF508 CFTR NIH 3T3 cells, forskolin
T2 construct: expressed in transfected cells
From the text: The assay utilizes fluorescent voltage sensing dyes to measure changes in membrane potential using a fluorescent plate reader (e.g., FLIPR III, Molecular Devices, Inc.) as a readout for increase in functional ΔF508-CFTR in NIH 3T3 cells. The driving force for the response is the creation of a chloride ion gradient in conjunction with channel activation by a single liquid addition step after the cells have previously been treated with compounds and subsequently loaded with a voltage sensing dye.
To identify potentiators of ΔF508-CFTR, a double-addition HTS assay format was developed. This HTS assay utilizes fluorescent voltage sensing dyes to measure changes in membrane potential on the FLIPR III as a measurement for increase in gating (conductance) of ΔF508 CFTR in temperature-corrected ΔF508 CFTR NIH 3T3 cells. The driving force for the response is a Cl^− ion gradient in conjunction with channel activation with forskolin in a single liquid addition step using a fluorescent plate reader such as FLIPR III after the cells have previously been treated with potentiator compounds (or DMSO vehicle control) and subsequently loaded with a redistribution dye.
Solutions • Bath Solution #1: (in mM) NaCl 160, KCl 4.5, CaCl2 2, MgCl2 1, HEPES 10, pH 7.4 with NaOH. • Chloride-free bath solution: Chloride salts in Bath Solution #1 are substituted with gluconate salts. […]

[4] = High throughput shake flask (HTSF) solubility at pH 7.4; type: physicochemical; conditions: aqueous buffer, kinetic from dmso stock; pH 7.4 phosphate buffer with 2% DMSO, shaken overnight
Protocol: A high throughput shake flask assay was used to determine solubility of compounds in pH 7.4 buffer. To calculate the concentration of compounds in solution, two conditions per compound were run: 300 uM in 100% DMSO and 200 uM in pH 7.4 phosphate buffer with 2% DMSO present. Each sample was left to shake overnight then injected onto HPLC-UV to determine peak area using the following conditions: Phenomenex 00A-4251-B0-30×2.00 mm Luna 3u C18(2) 100A column; 0.8 mL/min flow rate; 20 uL injection volume; HPLC grade water with 0.1% formic acid and HPLC grade acetonitrile with 0.1% formic acid mobile phases; peak area determined at 254 nm. Solubility in uM was calculated using the following equation: conc.=(peak area pH 7.4)/(peak area 300 uM DMSO standard condition)*300 uM concentration of standard condition. Peaks of interest were identified in buffer conditions based on retention time (RT) of the largest area peak in the 300 uM DMSO standard condition.

[5] = HLM/RLM stability, % remaining at 30 min; type: in vitro ADME
[6] = molecular target: Δ508/G551D-HBE (Homo sapiens, UniProt P13569, G551D); test: Ussing chamber assay, Δ508/G551D-HBE; type: cell-based
Δ508/G551D-HBE, sequence (P13569 whole entry G551D, stated change not applied): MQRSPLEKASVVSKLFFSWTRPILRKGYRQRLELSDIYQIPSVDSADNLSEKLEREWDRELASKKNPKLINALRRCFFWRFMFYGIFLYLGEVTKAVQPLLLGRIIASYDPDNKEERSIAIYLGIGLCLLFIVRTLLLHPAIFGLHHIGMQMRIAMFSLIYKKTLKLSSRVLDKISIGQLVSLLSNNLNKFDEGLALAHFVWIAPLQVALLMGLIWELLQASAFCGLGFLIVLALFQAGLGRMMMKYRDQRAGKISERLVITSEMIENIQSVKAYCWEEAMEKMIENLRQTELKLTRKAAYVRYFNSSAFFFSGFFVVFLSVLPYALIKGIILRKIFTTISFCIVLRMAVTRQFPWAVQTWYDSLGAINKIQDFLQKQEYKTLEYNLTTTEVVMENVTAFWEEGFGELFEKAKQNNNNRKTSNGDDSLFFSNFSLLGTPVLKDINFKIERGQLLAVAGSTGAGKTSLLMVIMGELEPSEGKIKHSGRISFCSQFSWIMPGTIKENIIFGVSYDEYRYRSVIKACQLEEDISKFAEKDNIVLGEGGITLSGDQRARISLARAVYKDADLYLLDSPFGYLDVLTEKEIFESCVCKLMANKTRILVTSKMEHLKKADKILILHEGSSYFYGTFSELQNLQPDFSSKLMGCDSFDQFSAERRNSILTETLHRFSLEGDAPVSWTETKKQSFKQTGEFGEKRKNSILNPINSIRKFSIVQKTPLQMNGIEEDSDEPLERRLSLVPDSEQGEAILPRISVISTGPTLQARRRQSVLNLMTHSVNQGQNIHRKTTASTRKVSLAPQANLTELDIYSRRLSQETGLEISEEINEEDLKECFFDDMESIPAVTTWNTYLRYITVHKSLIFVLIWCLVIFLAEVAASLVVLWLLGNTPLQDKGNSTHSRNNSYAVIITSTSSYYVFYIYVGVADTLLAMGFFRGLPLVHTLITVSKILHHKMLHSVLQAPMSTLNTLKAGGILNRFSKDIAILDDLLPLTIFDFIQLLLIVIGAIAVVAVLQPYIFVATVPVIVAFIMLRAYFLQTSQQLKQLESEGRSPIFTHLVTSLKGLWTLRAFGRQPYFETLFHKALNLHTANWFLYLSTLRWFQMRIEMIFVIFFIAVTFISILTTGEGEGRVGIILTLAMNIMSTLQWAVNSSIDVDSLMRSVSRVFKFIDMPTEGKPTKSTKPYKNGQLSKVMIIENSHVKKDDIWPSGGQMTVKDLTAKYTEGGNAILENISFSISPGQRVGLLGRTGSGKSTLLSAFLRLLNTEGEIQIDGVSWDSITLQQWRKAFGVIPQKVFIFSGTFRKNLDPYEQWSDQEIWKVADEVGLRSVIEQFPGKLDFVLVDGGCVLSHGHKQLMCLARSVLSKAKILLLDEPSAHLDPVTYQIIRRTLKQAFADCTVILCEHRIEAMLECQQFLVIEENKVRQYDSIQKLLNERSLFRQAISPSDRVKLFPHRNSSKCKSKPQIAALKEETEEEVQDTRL
Δ508/G551D-HBE, sequence (P13569 whole entry G551D, stated change not applied): as above

T1 sequence (P13569 with tags, fused parts or gaps DEL508-508): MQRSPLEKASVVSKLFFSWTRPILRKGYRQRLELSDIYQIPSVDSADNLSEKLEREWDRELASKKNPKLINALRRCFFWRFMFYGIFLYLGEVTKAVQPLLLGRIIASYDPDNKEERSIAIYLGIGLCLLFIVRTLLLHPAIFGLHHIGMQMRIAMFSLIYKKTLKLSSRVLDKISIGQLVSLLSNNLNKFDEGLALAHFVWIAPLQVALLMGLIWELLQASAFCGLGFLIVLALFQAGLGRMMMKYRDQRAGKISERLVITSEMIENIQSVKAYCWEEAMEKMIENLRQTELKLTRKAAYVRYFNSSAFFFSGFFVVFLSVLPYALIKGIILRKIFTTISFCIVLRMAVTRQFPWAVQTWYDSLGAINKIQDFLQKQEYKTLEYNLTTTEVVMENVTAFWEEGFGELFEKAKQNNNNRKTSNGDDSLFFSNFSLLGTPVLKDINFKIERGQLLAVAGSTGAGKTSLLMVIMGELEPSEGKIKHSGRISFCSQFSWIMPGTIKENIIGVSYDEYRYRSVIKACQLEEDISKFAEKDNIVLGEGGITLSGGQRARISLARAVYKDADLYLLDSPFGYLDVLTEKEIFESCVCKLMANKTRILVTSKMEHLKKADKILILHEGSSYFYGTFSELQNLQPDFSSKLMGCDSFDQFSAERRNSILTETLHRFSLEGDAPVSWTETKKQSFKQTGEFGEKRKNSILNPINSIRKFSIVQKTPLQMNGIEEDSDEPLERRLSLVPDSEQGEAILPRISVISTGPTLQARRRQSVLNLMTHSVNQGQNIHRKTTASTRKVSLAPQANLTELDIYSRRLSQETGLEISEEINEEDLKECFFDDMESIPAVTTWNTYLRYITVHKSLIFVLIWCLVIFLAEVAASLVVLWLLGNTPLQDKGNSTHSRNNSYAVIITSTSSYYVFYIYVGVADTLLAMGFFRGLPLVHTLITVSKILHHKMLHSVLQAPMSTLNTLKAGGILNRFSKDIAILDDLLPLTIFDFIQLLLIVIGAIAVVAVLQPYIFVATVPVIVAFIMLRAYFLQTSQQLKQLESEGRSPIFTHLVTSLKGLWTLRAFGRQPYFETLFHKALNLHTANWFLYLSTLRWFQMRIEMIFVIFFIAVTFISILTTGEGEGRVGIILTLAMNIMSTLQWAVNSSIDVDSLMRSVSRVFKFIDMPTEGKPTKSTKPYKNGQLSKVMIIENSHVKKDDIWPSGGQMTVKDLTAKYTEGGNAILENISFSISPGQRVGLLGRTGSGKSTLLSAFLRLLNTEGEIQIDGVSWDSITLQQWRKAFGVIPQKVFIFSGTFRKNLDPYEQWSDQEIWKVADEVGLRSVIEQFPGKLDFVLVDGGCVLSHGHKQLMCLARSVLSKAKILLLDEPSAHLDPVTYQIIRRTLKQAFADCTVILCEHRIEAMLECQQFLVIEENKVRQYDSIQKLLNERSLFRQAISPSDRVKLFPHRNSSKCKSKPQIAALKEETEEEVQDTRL
T2 sequence (P13569 with tags, fused parts or gaps DEL508-508): as above

Row | SMILES | pIC50 [1] | pEC50 [2] | pEC50 [3] | solubility [4] | HLM/RLM (% remain. @ 30 min) [5] | pEC50 [6]
1 | CC(C)(C)c1cc(C(C)(C)CO)c(O)cc1NC(=O)c1c[nH]c2ccccc2c1=O [Compound 27, N-(2-tert-butyl-5-hydroxy-4-(1-hydroxy-2-methylpropan-2-yl)phenyl)-4-oxo-1,4-dihydroquinoline-3-carboxamide] | < 5.30 | > 5.70 | > 5.70 | 87 µM (≈ 35.5 µg/mL) | ++ (“++” if efficacy was calculated to be from 100% to 25%) | > 5.70
2 | CC(C)(C)c1cc(C(C)(C)C(=O)O)c(O)cc1NC(=O)c1c[nH]c2ccccc2c1=O [Compound 28, 2-(5-tert-butyl-2-hydroxy-4-(4-oxo-1,4-dihydroquinoline-3-carboxamido)phenyl)-2-methylpropanoic acid] |  | > 5.70 | 5.30 to 5.70 | > 200 µM | +++ (“+++” if efficacy was calculated to be greater than 100%) | 5.30 to 5.70
